Data set [1] in a line: in vivo. Particulars: rat, iv.
Data set [2] in a line: in vivo. Particulars: dog, iv.
The nature of data set [3]: in vivo. Particulars: dog, po.
The nature of data set [4]: in vivo. To be noted: rat, po.
The nature of data set [5]: in vivo. To be noted: rat, iv. This is another data set of the same source.
Data set [6] in a line: in vivo. Particulars: dog, iv. This is another data set of the same source.

SMILES strings stand for the structures.

Usually clearance stands for the rate of elimination divided by the concentration. Read a low clearance as a low capacity for elimination. One may read the bioavailability as dose-corrected exposure relative to a reference, in per cent. Low readings indicate little systemic uptake, high ones much systemic uptake. In general, half-life refers to how long it takes for the measured level to halve. Low values mean rapid decline, high ones slow decline. Turning to `CN1Cc2cc(C(=O)NCc3cccc(N)n3)ccc2N[C@@H](CC(=O)O)C1=O`, the clearance in the data set “in vivo [1]” was 63 mL/min/kg; in the data set “in vivo [2]”, 7.8 mL/min/kg. The bioavailability in “in vivo [3]” was 10%; in “in vivo [4]”, 13%. Moreover, the half-life in “in vivo [5]” was 45 min; in “in vivo [6]”, 47 min.

For the origin of these results see ChEMBL document CHEMBL1131768, “Orally bioavailable nonpeptide vitronectin receptor antagonists containing 2-aminopyridine arginine mimetics” (Bioorg Med Chem Lett, 1999).
